# According to publication PMC4213378, “Pharmacokinetics and Efficacy of the Spleen Tyrosine Kinase Inhibitor R406 after Ocular Delivery for Retinoblastoma” (Pharmaceutical Research, 2014):
# Key:
# [1] = tested on: human orthotopic retinoblastoma xenografts; set-up: method as in PMID 22237022; settings: cited from earlier work
# retinoblastoma cells = tested on: retinoblastoma cells; set-up: method as in PMID 22237022; settings: cited from earlier work
# [2] = Co-solvent solution formulation solubility matrix; format: physicochemical; settings: read-out: R788 Solubility
# [3] = Vitreous and plasma R406 after intravitreal injection of R788; format: in vivo, mouse; settings: intravitreal injection of R788 in saline, 5 μL per eye of 120 μM; mice
# Description: For oral delivery of R788, the target dose of 25 mg/kg R788 was administered by oral gavage as a 4 mM solution in 0.01 N citrate buffer, pH 6 ([9]). For subconjunctival administration, R788 was prepared at a concentration of 4 mM in 2% PEG-800 and filtered through a 0.22 μm filter prior to use (see Table S1). R788 was also administered subconjunctivally as a suspension at a concentration of 25 mM in 10% 2-hydroxylpropyl-β-cyclodextrin (HPβCD, Sigma-Aldrich). For subconjunctival administration, R406 phenylsulfonate salt was administered at a concentration of 800–900 μM as a cosolvent solution in a formulation of 5% Cremaphor-eL, 0.5% ethanol, 0.2% Tween 80 and 94.3% PBS, filtered through a 0.22 μm filter prior to use (see Table S2). R406 phenylsulfonate salt was also administered subconjunctivally at a dose of 31.4 mM solution in DMSO. […] R406 or R788 concentration in all formulations was determined by UPLC prior to study (in cases where formulation was filtered before administration, concentration was determined post-filtering) Table I. […]
# At serial time points (0.5, 1, 2, 4, and 8 h post-injection, n = 3 for each time point), blood was collected by terminal cardiac puncture after isoflurane anesthesia. […] For quantitative analysis methods and assay validation methods and results, see Supplementary Information.
# [4] = Maximum solubility in PBS or saline; format: physicochemical
# [5] = Bioconversion of R788 to R406 in mouse vitreous; format: in vitro ADME; settings: extracted mouse vitreous, 37°C, initial 25 μM R788, within 2 h
# Description: Conversion of R788 to R406 was examined in freshly harvested murine vitreous, 2 U/mL bovine alkaline phosphatase in PBS (positive control), or plain PBS (no enzyme, negative control) at 37°C using a modified version of previously described phosphate prodrug conversion protocols ([9], [12]). Alkaline phosphatase (ALP) from bovine intestinal mucosa was obtained from Invitrogen and was reconstituted and diluted according to the manufacturer’s instructions. Vitreous was harvested from a mixed population of mice, pooled, and kept on ice for 1 - 2 h. The incubation media were pre-warmed to 37°C before the reaction was initiated by addition of 1 mM of R788 in saline (6 μL of R788 in saline into 234 μL of incubation media in a 1.5 mL Eppendorf tube). R788 was diluted into the incubation media at a 1:40 ratio (volume:volume) to mimic the dilution encountered during intravitreal injection in humans (typically 100 μL injection volume into 4–5 mL of human vitreous volume ([13], [14]). Initial estimated concentration of R788 was 25 μM. At the desired time points (0, 5, 10, 20, 30, 45, 60, and 120 min) an aliquot of 25 μl was collected from each incubation vial and transferred to a 1.5 mL Eppendorf tube, containing 25 μl of acetonitrile to terminate the reaction. 3 samples were tested per time point. Samples were stored at −80°C until quantification.
# [6] = Plasma pharmacokinetics after oral or subconjunctival administration; format: in vivo, mouse; settings: local (subconjunctival), castor oil emulsion 6.5 mM, 65 nmol per eye; mice
# Description: (§1) For oral delivery of R788, the target dose of 25 mg/kg R788 was administered by oral gavage as a 4 mM solution in 0.01 N citrate buffer, pH 6 ([9]). For subconjunctival administration, R788 was prepared at a concentration of 4 mM in 2% PEG-800 and filtered through a 0.22 μm filter prior to use (see Table S1). R788 was also administered subconjunctivally as a suspension at a concentration of 25 mM in 10% 2-hydroxylpropyl-β-cyclodextrin (HPβCD, Sigma-Aldrich). For subconjunctival administration, R406 phenylsulfonate salt was administered at a concentration of 800–900 μM as a cosolvent solution in a formulation of 5% Cremaphor-eL, 0.5% ethanol, 0.2% Tween 80 and 94.3% PBS, filtered through a 0.22 μm filter prior to use (see Table S2). R406 phenylsulfonate salt was also administered subconjunctivally at a dose of 31.4 mM solution in DMSO. R406 free base was administered subconjunctivally at a concentration of 6.5 mM as a 25% castor oil (Sigma-Aldrich) emulsion. This emulsion was prepared by mixing castor oil: ethanol (1:1) solution of R406 (approx. 35 mM), in vacuo evaporation of the ethanol, and centrifugation to remove any excess R406, then emulsifying the R406 oil phase in an aqueous phase comprised of Cremaphor-eL, Tween 80 and PBS (final composition of the emulsion: 25% castor oil, 5% Cremaphor-eL, 0.2% Tween-80, 69.8% PBS) by probe sonication. For intravitreal injection, R788 solution was prepared by filtering a 0.12 mM (120 μM) solution of R788 in saline through a 0.22 μm filter. […] For topical delivery, 25–30 mM suspensions were prepared in 5% HPβCD. R406 or R788 concentration in all formulations was determined by UPLC prior to study (in cases where formulation was filtered before administration, concentration was determined post-filtering) Table I.
# (§2) For the systemic delivery study R788 was administered as a single bolus dose (25 mg/kg, 10 mL/kg volume) by oral gavage. For the subconjunctival administration study R788 or R406 (10 µL of formulation) was injected into the subconjunctival space of an anesthetized mouse using a Hamilton microliter syringe (Hamilton company, Reno NV). For the intravitreal administration study, R788 (5 μL of […] in saline) was administered to each eye via direct injection. To perform the intravitreal injection, mice were anesthetized, a small incision between the sclera and the cornea was created with a […] needle, and the R788 was injected into the vitreous using a Hamilton microliter syringe. For the topical administration study, R406 (2 μL of 25–30 mM suspension) was applied as a drop to the surface of each eye of an anesthetized mouse.
# (§3) At serial time points (0.5, 1, 2, 4, and 8 h post-injection, n = 3 for each time point), blood was collected by terminal cardiac puncture after isoflurane anesthesia. Whole-blood samples were centrifuged immediately at 10,000×g for 5 min at 4°C to separate plasma. Once the cardiac puncture and blood collection was completed, the animal was perfused with 10 mL of saline and euthanized by cervical dislocation. Eyes were removed, rinsed in PBS, gently patted dry, then rinsed and dried again. Eyes were dissected and vitreous was collected. Plasma and vitreous samples were put on dry ice immediately after collection and stored at −80°C until analysis. For quantitative analysis methods and assay validation methods and results, see Supplementary Information.
# (§4) Plasma and vitreous concentration time data were analyzed using non-compartmental analysis in WinNonlin 6.2 (Pharsight, Mountain View, CA), providing PK parameters including Cmax (maximum observed concentration), Tmax (time to reach maximum observed concentration), AUC (area under the concentration time curve) and MRT (mean residence time). AUC and AUMC (area under the concentration time first moment curve) values were estimated with the linear trapezoidal method, with parameters calculated using mean concentration values at each time point. […]
# [7] = Intraocular and plasma R406 after topical administration (eye drops); format: in vivo, mouse; settings: mice; for R406 levels in the eye at 0.5 h post dosing / R406 levels in the eye at 1 h post dosing / drug in plasma samples: single topical dose; for R406 levels in the eye at 0.5 h post dosing / R406 levels in the eye at 1 h post dosing: drops, 2 μL of 25 mM suspension in 5% HPβCD; for drug in plasma samples: data not shown
# Description: as §1, §2, §3
# To evaluate the topical route for R406 delivery, we tested the intraocular concentration after a single topical dose of R406 free base or an R406 […] salt.
# [8] = Concentration and stability of R406 in castor oil and castor oil emulsion; format: physicochemical
# Description: as §1
# An emulsion of 30% castor oil, 5% Cremaphor, 4% T80, 61% PBS was prepared and samples were stored at 4 °C and room temperature (25 °C). Samples were diluted and OD600 for each dilution was measured in triplicate on the day of emulsion preparation (storage time = 0 days) and after 6 days of storage. OD600 was measured using a black Costar clear bottom plate and a Spectramax plate reader.
# For storage stability in emulsion, n =4.
# [9] = Vitreous pharmacokinetics after oral or subconjunctival administration; format: in vivo, mouse; settings: local (subconjunctival), castor oil emulsion 6.5 mM, 65 nmol per eye, mice
# Description: as §1, §2, §3, §4
# [10] = Crashing upon dilution of DMSO stock in PBS; format: physicochemical
# From the text: Supplement 11095_2014_1399_MOESM1_ESM.docx, table 14: Table S14. R406 phenylsulfonate salt and free base crashing upon dilution of DMSO stock in PBS | column: Measured Concentration
# [11] = set-up: method as in PMID 21515735; settings: previous work; cited from earlier work
# [12] = set-up: method as in PMID 21515735; settings: subconjunctival administration; previous work; cited from earlier work
smiles,measurement,setting,value
COc1ccc(-c2cc3nccn3c(Nc3ncccc3C(N)=O)n2)cc1OC [BAY-61-3606],blocking proliferation of human orthotopic retinoblastoma xenografts in vivo,[1],efficacious
same,induction of caspase-mediated cell death of retinoblastoma cells in vitro,retinoblastoma cells,can induce caspase-mediated cell death
COc1cc(Nc2ncc(F)c(Nc3ccc4c(n3)N(COP(=O)(O)O)C(=O)C(C)(C)O4)n2)cc(OC)c1OC [R788],solubility,"[2]; Trial 2: 2% PEG-8000, 98% PBS",3560 µM
same,solubility,"[2]; aqueous buffer, Trial 3: 0.5% EtOH, 99.5% PBS",1010 µM
same,solubility,"[2]; aqueous buffer, Trial 4: 3% Glycerin, 97% PBS",1130 µM
same,solubility,"[2]; aqueous buffer, Trial 9: 100% PBS",1240 µM
same,solubility,"[2]; aqueous with cosolvent or surfactant or cyclodextrin, Trial 1: 0.1% Tyloxapol, 99.9% PBS",1230 µM
same,solubility,"[2]; aqueous with cosolvent or surfactant or cyclodextrin, Trial 5: 5% Cremaphor-eL, 95% PBS",1430 µM
same,solubility,"[2]; aqueous with cosolvent or surfactant or cyclodextrin, Trial 6: 10% PPG, 90% PBS",1130 µM
same,solubility,"[2]; aqueous with cosolvent or surfactant or cyclodextrin, Trial 7: 15% pPPG, 85% PBS",1530 µM
same,solubility,"[2]; aqueous with cosolvent or surfactant or cyclodextrin, Trial 8: 4% Tween-80, 96% PBS",1710 µM
same,solubility,"[2]; aqueous with cosolvent or surfactant or cyclodextrin, Trial 10: 5% Cremaphor-eL, 4% Tween-80, 91% PBS",1510 µM
same,solubility,"[2]; aqueous with cosolvent or surfactant or cyclodextrin, Trial 11: 15% pPPG, 4% Tween-80, 81% PBS",1840 µM
same,solubility,"[2]; aqueous with cosolvent or surfactant or cyclodextrin, Trial 12: 5% Cremaphor-eL, 15% pPPG, 80% PBS",2150 µM
same,solubility,"[2]; aqueous with cosolvent or surfactant or cyclodextrin, Trial 13: 5% Cremaphor-eL, 15% pPPG, 4% Tween-80, 76% PBS",2640 µM
same,solubility,"[2]; aqueous with cosolvent or surfactant or cyclodextrin, Trial 14: 2% PEG-8000, 5% Cremaphor-eL, 15% pPPG, 4% Tween-80, 74% PBS",3470 µM
same,R406 levels in plasma samples,[3],BLOQ
same,solubility,"[4]; PBS, read-out: maximum solubility in PBS",1400 µM
same,solubility,"[4]; saline, read-out: maximum solubility in saline",1200 to 1400 µM
same,conversion of R788 to R406,[5],100%
COc1cc(Nc2ncc(F)c(Nc3ccc4c(n3)NC(=O)C(C)(C)O4)n2)cc(OC)c1OC [R406 free base],Cmax,[6],119 nM
same,Plasma AUClast,[6],0.119 µM·h
same,Plasma Dose normalized AUC,[6],0.9 nM∙h/nmol
same,Plasma Tlast,[6],2 h
same,Plasma Tmax,[6],0.5 h
same,R406 levels in the eye at 0.5 h post dosing,[7],0.1 ± 0.06 µM
same,R406 levels in the eye at 1 h post dosing,[7],0.1 ± 0.1 µM
same,drug in plasma samples,[7],No detectable drug
same,time stable in castor oil,[8]; room temperature,at least 6 days
same,"average concentration remaining, % of the initial concentration","[8]; stored in castor oil at room temperature, after 6 days, n=3",113.3%
same,solubility in PBS,[4]; PBS,insoluble (below the limit of quantitation)
same,Cmax,[9],169 ± 35.9 nM
same,Vitreous AUClast,[9],0.43 µM·h
same,Vitreous Dose normalized AUC,[9],3.3 nM∙h/nmol
same,Vitreous MRT0-4h,[9],2.19 h
same,Vitreous Tlast,[9],4 h
same,Vitreous Tmax,[9],0.5 h
same,Vitreous MRT0-4h,[9]; listed as R406 base,≥ 2 h
same,Measured Concentration,[10]; DMSO stock diluted 1 in 10 in PBS prior to filtration (theoretical 1.11 mM),965 µM
same,Measured Concentration,"[10]; DMSO stock diluted 1 in 10 in PBS, 0.22 micron filtered",7 µM
same,Measured Concentration,"[10]; DMSO stock diluted 1 in 20 in PBS, 0.22 micron filtered",6 µM
same,Measured Concentration,"[10]; DMSO stock, printed 'diluted 1 in 10 in PBS prior to filtration' (second such line, theoretical 557 µM)",510 µM
COc1ccc(C2=N[C@@H](c3ccc(Cl)cc3)[C@@H](c3ccc(Cl)cc3)N2C(=O)N2CCNC(=O)C2)c(OC(C)C)c1 [nutlin-3a],water solubility,[11],approximately 40 μM
same,AUC ratio of vitreous to plasma,[12],28.6
CCCCCCCCCCCCCCCC(=O)O.COc1cc(Nc2ncc(F)c(Nc3ccc4c(n3)NC(=O)C(C)(C)O4)n2)cc(OC)c1OC [R406 palmitate salt],R406 levels in the eye at 0.5 h post dosing,[7],0.3 ± 0.3 µM
same,R406 levels in the eye at 1 h post dosing,[7],0.3 ± 0.2 µM
same,drug in plasma samples,[7],No detectable drug
same,vitreous concentration of R406,"[7]; topical 40 mM R406 palmitate 5% cyclodextrin suspension, 1-4 hourly doses, sustained for 1.5 h after each application",1 to 2 µM
same,Cmax,"[7]; topical delivery in cyclodextrin drops, sustainable via repeated dosing, read-out: vitreous Cmax / intraocular concentration",> 1000 nM
